Each structure is given as a SMILES string.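 Test compounds were applied to cells in 96-well plates for 48 hours at 5 doses. GI50 marks 50% less growth.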 Calls of active or inactive are those of the source. Cut-off read from the data, not from the text of the source: active = GI50 up to about 1.1 µM and inactive = higher.

Common to all, as to assay: NCI-60 cell line screen, 48 h
The subject of assay [1] is MOLT-4.
Assay [2] relates to IGROV-1.
The subject of assay [3] is CCRF-CEM.
For assay [4], the system named is SW-620.
Assay [5] has as its system HOP-62.
Assay [6] relates to OVCAR-3.
The test system of assay [7] is CAKI-1.
Assay [8] has as its system K562.
The test system of assay [9] is UACC-257.
The test system of assay [10] is U-251.
Assay [11] concerns SK-MEL-2.
The test system of assay [12] is HOP-92.
Assay [13] concerns NCI-H522.
Assay [14] concerns MDA-N.

As to `Cc1nc(Nc2ccc(Cl)c(Cl)c2)sc1C(=O)/C=C/c1ccc2c(c1)OCO2`, the GI50 is 14.9 µM (inactive) in [1]; 38.6 µM (inactive) in [2]; 31.8 µM (inactive) in [3]; 40.5 µM (inactive) in assay [4]; 17.9 µM (inactive) in [5]; 10.4 µM (inactive) in [6]. Besides, the GI50 was 16.5 µM (inactive) in assay [7], 31.6 µM (inactive) in assay [8], 31.6 µM (inactive) in assay [9] and 22 µM (inactive) in assay [10].

`N#CC(c1ccc(O)cc1)N1CCN(C(C#N)c2ccc(O)cc2)CC1` (centres undefined): the GI50 in assay [1] is > 100 µM (inactive); in [2] it was 51.1 µM (inactive); in assay [11] it was 68.2 µM (inactive); in assay [3], > 100 µM (inactive); in assay [4] it was > 100 µM (inactive); in assay [5], 20.2 µM (inactive). The GI50 in assay [12] was 23.3 µM (inactive); in assay [13], > 100 µM (inactive); in [6], > 100 µM (inactive); in assay [7], > 100 µM (inactive); in assay [8] it was > 100 µM (inactive); in assay [9], > 100 µM (inactive). In [10], the GI50 is 22.3 µM (inactive).

As for `CCOC(=O)C(NC(=O)OC(C)(C)C)C(=O)OCC`, the GI50 in assay [1], in assay [2], in assay [11], in assay [3], in assay [4] and in assay [5] was > 100 µM (inactive) each time. The GI50 in assay [12], in [13], in assay [7], in [8], in assay [9] and in assay [10] was > 100 µM (inactive) each time.

Turning to `c1ncn(C23C4C5C6C4C2C6C53)n1` (centres undefined), the GI50 in assay [1], in assay [2], in assay [11], in assay [3], in assay [4] and in assay [5] was > 100 µM (inactive) each time. Besides, the GI50 in assay [13], in [8], in assay [9], in assay [14] and in assay [10] was > 100 µM (inactive) throughout.

On to `O=C1N[C@H]2c3c(Cl)sc(Cl)c3/C(=N/O)[C@H]2O1`, for which the GI50 in assay [1] is > 100 µM (inactive); in assay [2], 72.3 µM (inactive); in assay [11] it was > 100 µM (inactive); in assay [3] it was 52.2 µM (inactive); in [4], > 100 µM (inactive); in assay [5] it was > 100 µM (inactive). Moreover, the GI50 was > 100 µM (inactive) in assay [6]; > 100 µM (inactive) in [7]; 75.3 µM (inactive) in [8]; > 100 µM (inactive) in assay [9]; > 100 µM (inactive) in assay [14]; > 100 µM (inactive) in [10].

`Cc1ccc(S(=O)(=O)CC2CCCn3c2c(C#N)c2ccccc23)cc1` (centres undefined): the GI50 in assay [1], in assay [2], in assay [11], in assay [3], in assay [4] and in assay [5] was > 100 µM (inactive) in each case. For the same molecule, the GI50 in assay [12], in [13], in assay [6], in [7], in assay [8] and in assay [9] was > 100 µM (inactive) throughout. The GI50 in assay [10] is > 100 µM (inactive).

Turning to `CC1(C)C[C@H](O)[C@H](O)[C@]23C(=O)O[C@H](O)[C@H]2C(C=O)=CC[C@@H]13`, the GI50 in assay [1], in [2], in assay [3], in [4], in assay [5] and in assay [13] was > 100 µM (inactive) throughout. Moreover, the GI50 in assay [6] was > 100 µM (inactive); in assay [7], > 100 µM (inactive); in [8], > 100 µM (inactive); in [9], > 100 µM (inactive); in [14] it was > 100 µM (inactive); in assay [10] it was 96.2 µM (inactive).

`CC(C)[C@H]1NC(=O)[C@H]2N=C(S[C@H]2C)[C@@H]2CCCN2C(=O)[C@H](Cc2ccccc2)NC(=O)[C@@H]2CSC(=N2)[C@@H](Cc2ccccc2)NC(=O)[C@@H]2CSC1=N2`: the GI50 in assay [1] was 11.6 µM (inactive); in assay [2], 29 µM (inactive); in [11], 18.3 µM (inactive); in [3], 12.3 µM (inactive); in assay [4] it was 18.1 µM (inactive); in [5], > 50 µM (inactive). Further, the GI50 in assay [13] is 12.2 µM (inactive); in assay [6], 20 µM (inactive); in [7], > 50 µM (inactive); in assay [8], 4.71 µM (inactive); in assay [9], 31.7 µM (inactive); in assay [14], 30.2 µM (inactive). The GI50 in [10] is 14.9 µM (inactive).

For the molecule `CN(CCN(C)C(=S)NN)C(=S)NN`, the GI50 in assay [1], in assay [2], in assay [11], in assay [3], in [4] and in assay [5] was > 100 µM (inactive) throughout. The GI50 in [13], in assay [6], in [7], in assay [9], in [14] and in [10] was > 100 µM (inactive) in each case.

Turning to `CC(=O)OC(C)(C)[C@H]1O[C@]23O[C@]1(C)C[C@@H](C)[C@@H]2[C@@]1(C)CC[C@@]24C[C@@]25CC[C@H](O[C@@H]2OC[C@@H](O)[C@H](O)[C@H]2O)C(C)(C)[C@@H]5CC[C@H]4[C@]1(C)[C@H]3O`, the GI50 in assay [1] is 5.32 µM (inactive); in assay [2], 7.08 µM (inactive); in assay [11], 18.1 µM (inactive); in assay [3], 5.94 µM (inactive); in assay [4], 4.34 µM (inactive); in [5], 11.9 µM (inactive). For the same molecule, the GI50 is 9.02 µM (inactive) in [12]; 7.28 µM (inactive) in assay [13]; 3.59 µM (inactive) in [6]; 5.47 µM (inactive) in assay [7]; 4.5 µM (inactive) in assay [8]; 18.8 µM (inactive) in [9]. Moreover, in assay [10], the GI50 is 6.41 µM (inactive).

Consider `CC1(C)CC[C@]2(C(=O)O)CC[C@]3(C)[C@H](C(=O)C=C4[C@@]5(C)C=C(C#N)C(=O)C(C)(C)[C@@H]5CC[C@]43C)[C@@H]2C1` [BARDOXOLONE], for which the GI50 in [1] is 0.259 µM (active); in [2], 0.762 µM (active); in [11], 1 µM (active); in assay [3], 0.22 µM (active); in assay [4], 0.492 µM (active); in assay [5], 0.665 µM (active). The GI50 in assay [12] was 1.29 µM (inactive); in assay [13], 0.923 µM (active); in assay [6], 0.102 µM (active); in [7], 0.687 µM (active); in assay [8], 0.263 µM (active); in [9] it was 1.14 µM (inactive). Besides, the GI50 in [10] is 0.274 µM (active).

The values above are taken from ChEMBL document CHEMBL1201862, “PubChem BioAssay data set” (2004).
